In patent US4740505A, “Pyridazinyloxy (or thio) phenyl phosphates” (priority 1985, dated 1988):
Like-named read-outs stand apart in the source and are kept apart here.

How the values were obtained:
Spodoptera litura = assay: Effectiveness on Spodoptera litura (mortality of 3rd instar larvae on sprayed soybean leaves); assay type: in vivo
Protocol: Effectiveness of Spondoptera litura
Each of the test compounds listed in the following table is processed into an emulsifiable concentrate in accordance with the formulation of Example 6. The emulsifiable concentrate is diluted with water (Dyne®, a spreading agent produced by Takeda Chemical Ind. Ltd., as diluted 3,000-fold) to prepare a 100 ppm aqueous solution.
Using a spray gun (nozzle pressure of 1 kg/cm^2 gauge), 20 ml of the aqueous 100 ppm solution is sprayed over soybean seedlings in a spraying chamber (on 10th day after germination) which have been raised in jiffy pots (6 cm in diameter). Two main leaves are respectively cut off from the seedlings 2 hours and 6 days after the spraying. Each of the leaves is put into an ice cream cup (diameter: 6 cm, depth: 4 cm), and 10 larvae of Spodoptera litura at the 3rd instar are put into each of the cups. The cups are left in a room at 25° C.; after 48 hours, dead larvae are counted. The test is repeated two times. The results are shown in terms of mortality (%) in Table 6. [formula]
The following compounds are used for controls.
The same compounds are used for controls also in the following Test Examples.

Tetranychus urticae = assay: Effectiveness on Tetranychus urticae (rating of effects on kidney bean seedlings); assay type: in vivo; conditions: 500 ppm, 20 ml, rating based on percent decrease; for Rating of effect Day-2: 2nd day after treatment; for Rating of effect Day-7: 7th day after treatment
Protocol: Effectiveness on Tetranychus urticae
Each of the compounds listed in the following table is processed into an emulsifiable concentrate in accordance with the formulation of Example 6. The emulsifiable concentrate is diluted with water (Dyne®, a spreading agent produced by Takeda Chemical Ind. Ltd., as diluted 3,000-fold) to prepare a 500 ppm aqueous solution. Ten female adult of Tetranychus urticae are put into each kidney been seedling raised in a jiffy pot (6 cm in diameter), and left in a glass house at 28° C. for 24 hours. Each pot is taken out of the glass house; 20 ml of the aqueous solution as prepared above is spread over each kidney bean seedling. The jiffy pots are laid in the glass house again. Larvae and adult which are alive on the leaves are counted at the 2nd and 7th days after the spreading treatment. The test is repeated two times. The degrees are determined on the basis of percent decrease.

[1] = Toxicological test: oral acute toxicity in mice; design: species or system mice (ddY-SLC strained male); conditions: mouse, in vivo, five-week aged ddY-SLC male mice
[2] = 100 ppm spray, leaves cut 6 days after spraying, dead larvae counted after 48 hours, 25° C., read-out: Mortality 6th day after spraying
[3] = 48 h, read-out: Mortality 2 hours after spraying
[4] = 100 ppm spray, leaves cut 2 hours after spraying, dead larvae counted after 48 hours, 25° C., read-out: Mortality 2 hours after spraying

Row | Structure (SMILES) | mortality at 100 ppm (Spodoptera litura; [2]) | mortality at 100 ppm (Spodoptera litura; [3]) | Rating of effect Day-2 (Tetranychus urticae) | Rating of effect Day-7 (Tetranychus urticae) | LD50 [1] | mortality at 100 ppm (Spodoptera litura; 48 h, read-out: Mortality 6th day after spraying) | mortality at 100 ppm (Spodoptera litura; [4])
1 | CCCSP(=O)(OCC)Oc1ccc(Oc2ccc(Cl)nn2)cc1 (stereo not drawn) [Compound No. 2, O-Ethyl-S-n-propyl-O-[4-(3-chloropyridazinyl-6-oxy)phenyl]phosphorothioate] | 100% | 100% | 3 (≥90) | 3 (≥90) |  |  | 
2 | CCCSP(=S)(OCC)Oc1ccc(Oc2ccc(Cl)nn2)cc1 (stereo not drawn) [Compound No. 3] | 90% | 100% | 3 (≥90) | 3 (≥90) | ~300 mg/kg |  | 
3 | CCCSP(=O)(OCC)Oc1ccc(Sc2ccc(Cl)nn2)cc1 (stereo not drawn) [Compound No. 4] | 95% | 100% | 3 (≥90) | 3 (≥90) | > 300 mg/kg |  | 
4 | CCCSP(=O)(OCC)Oc1cccc(Oc2ccc(N(C)C)nn2)c1 (stereo not drawn) [Compound No. 21, O-Ethyl-S-n-propyl-O-[3-(3-dimethylaminopyridazinyl-6-oxy)phenyl]phosphorothioate] | 100% | 100% | 3 (≥90) | 3 (≥90) |  |  | 
5 | CCC(C)SP(=O)(OC)Oc1ccccc1Oc1ccc(Cl)nn1 (stereo not drawn) [Compound No. 27, O-Methyl-S-sec-butyl-O-[2-(3-chloropyridazinyl-6-oxy)phenyl]phosphorothioate] | 100% | 100% | 3 (≥90) | 3 (≥90) |  |  | 
6 | CCCSP(=O)(OCC)Oc1ccccc1Oc1ccc(Cl)nn1 (stereo not drawn) [Compound No. 29, O-Ethyl-S-n-propyl-O-[2-(3-chloropyridazinyl-6-oxy)phenyl]phosphorothioate] |  | 100% | 3 (≥90) | 3 (≥90) |  | 90% | 
7 | CCCSP(=S)(OCC)Oc1ccccc1Oc1ccc(Cl)nn1 (stereo not drawn) [Compound No. 30, O-Ethyl-S-n-propyl-O-[2-(3-chloropyridazinyl-6-oxy)phenyl]phosphorodithioate] | 100% | 100% | 3 (≥90) | 3 (≥90) | > 300 mg/kg |  | 
8 | CCCSP(=S)(OCC)Oc1ccccc1Sc1ccc(Cl)nn1 (stereo not drawn) [Compound No. 32, O-Ethyl-S-n-propyl-O-[2-(3-chloropyridazinyl-6-thio)phenyl]phosphorodithioate] |  |  | 3 (≥90) | 3 (≥90) | > 300 mg/kg |  | 
9 | CCCSP(=O)(OCC)Oc1ccccc1Oc1ccc(OC)nn1 (stereo not drawn) [Compound No. 39, O-Ethyl-S-n-propyl-O-[2-(3-methoxypyridazinyl-6-oxy)phenyl]phosphorothioate] | 100% | 100% | 3 (≥90) | 3 (≥90) | ~300 mg/kg |  | 
10 | CCCSP(=S)(OCC)Oc1ccccc1Oc1ccc(OC)nn1 (stereo not drawn) [Compound No. 40] | 100% | 100% | 3 (≥90) | 3 (≥90) | > 300 mg/kg |  | 
11 | COP(=S)(OC)Oc1ccc([N+](=O)[O-])c(C)c1 [Fenitrothion, reference compound] | 0% |  | 3 (≥90) | 0 (≤20) |  |  | 80%
12 | CCCSP(=S)(OCC)Oc1ccc(Cl)cc1Cl (stereo not drawn) [Prothiophos, reference compound] | 10% |  | 3 (≥90) | 0 (≤20) |  |  | 100%
13 | CCCSP(=O)(OCC)Oc1ccc(Oc2cccnn2)cc1 (stereo not drawn) [compound 1] | 90% | 100% | 3 (≥90) | 3 (≥90) |  |  | 
14 | CCCSP(=S)(OCC)Oc1ccc(Sc2ccc(Cl)nn2)cc1 (stereo not drawn) [compound 5] |  |  | 3 (≥90) | 3 (≥90) | > 300 mg/kg |  | 
15 | CCCSP(=O)(OCC)Oc1ccc(Oc2ccc(N(C)C)nn2)cc1 (stereo not drawn) [compound 6] | 90% | 100% |  |  |  |  | 
16 | CCCSP(=S)(OCC)Oc1ccc(Oc2ccc(N(C)C)nn2)cc1 (stereo not drawn) [compound 7] |  |  |  |  | > 300 mg/kg |  | 
17 | CCCSP(=O)(OCC)Oc1ccc(Sc2ccc(N(C)C)nn2)cc1 (stereo not drawn) [compound 8] |  |  | 3 (≥90) | 3 (≥90) | ~300 mg/kg |  | 
18 | CCCSP(=S)(OCC)Oc1ccc(Sc2ccc(N(C)C)nn2)cc1 (stereo not drawn) [compound 9] |  |  | 3 (≥90) | 3 (≥90) | > 300 mg/kg |  | 
19 | CCCSP(=S)(OCC)Oc1ccc(Oc2ccc(NC(C)CC)nn2)cc1 (stereo not drawn) [compound 10] |  |  |  |  | > 300 mg/kg |  | 
20 | CCCSP(=O)(OCC)Oc1ccc(Sc2ccc(NC(C)CC)nn2)cc1 (stereo not drawn) [compound 11] |  |  |  |  | > 300 mg/kg |  | 

Row | Structure (SMILES) | mortality at 100 ppm (Spodoptera litura; [2]) | mortality at 100 ppm (Spodoptera litura; [3]) | Rating of effect Day-2 (Tetranychus urticae) | Rating of effect Day-7 (Tetranychus urticae) | LD50 [1] | mortality at 100 ppm (Spodoptera litura; 48 h, read-out: Mortality 6th day after spraying) | mortality at 100 ppm (Spodoptera litura; [4])
21 | CCCSP(=S)(OCC)Oc1ccc(Sc2ccc(NC(C)CC)nn2)cc1 (stereo not drawn) [compound 12] |  |  |  |  | > 300 mg/kg |  | 
22 | CCCSP(=O)(OCC)Oc1ccc(Oc2ccc(N(C(C)=O)C(C)CC)nn2)cc1 (stereo not drawn) [compound 13] |  |  | 3 (≥90) | 3 (≥90) |  |  | 
23 | CCC(C)SP(=O)(OC)Oc1ccc(Oc2ccc(Cl)nn2)c(C)c1 (stereo not drawn) [compound 14] |  |  | 3 (≥90) | 3 (≥90) |  |  | 
24 | CCCSP(=O)(OCC)Oc1ccc(Oc2ccc(Cl)nn2)c(C)c1 (stereo not drawn) [compound 15] | 100% | 100% | 3 (≥90) | 3 (≥90) |  |  | 
25 | CCCSP(=S)(OCC)Oc1ccc(Oc2ccc(Cl)nn2)c(C)c1 (stereo not drawn) [compound 16] | 100% | 100% | 3 (≥90) | 3 (≥90) | > 300 mg/kg |  | 
26 | CCCSP(=O)(OCC)Oc1cccc(Oc2cccnn2)c1 (stereo not drawn) [compound 17] | 100% | 100% | 3 (≥90) | 3 (≥90) |  |  | 
27 | CCCSP(=O)(OCC)Oc1cccc(Oc2ccc(Cl)nn2)c1 (stereo not drawn) [compound 18] | 100% | 100% | 3 (≥90) | 3 (≥90) | > 300 mg/kg |  | 
28 | CCCSP(=O)(OCC)Oc1cccc(Sc2ccc(Cl)nn2)c1 (stereo not drawn) [compound 19] | 90% | 100% | 3 (≥90) | 3 (≥90) | > 300 mg/kg |  | 
29 | CCCSP(=S)(OCC)Oc1cccc(Sc2ccc(Cl)nn2)c1 (stereo not drawn) [compound 20] | 90% | 100% | 3 (≥90) | 3 (≥90) | > 300 mg/kg |  | 
30 | CCCSP(=O)(OCC)Oc1cccc(Oc2ccc(NC(C)CC)nn2)c1 (stereo not drawn) [compound 22] | 100% | 100% |  |  |  |  | 
31 | CCCSP(=O)(OCC)Oc1ccccc1Oc1ccc(Br)nn1 (stereo not drawn) [compound 24] | 100% | 100% | 3 (≥90) | 3 (≥90) | ~300 mg/kg |  | 
32 | CCC(C)SP(=O)(OC)Oc1ccccc1Sc1ccc(Cl)nn1 (stereo not drawn) [compound 28] | 95% | 100% | 3 (≥90) | 3 (≥90) |  |  | 
33 | CCCSP(=O)(OCC)Oc1ccccc1Sc1ccc(Cl)nn1 (stereo not drawn) [compound 31] |  |  | 3 (≥90) | 3 (≥90) | > 300 mg/kg |  | 
34 | CCOP(=O)(Oc1ccccc1Oc1ccc(Cl)nn1)SC(C)C (stereo not drawn) [compound 33] |  |  |  |  | > 300 mg/kg |  | 
35 | CCOP(=O)(Oc1ccccc1Oc1ccc(Cl)nn1)SC(C)CC (stereo not drawn) [compound 36] | 100% | 100% |  |  |  |  | 
36 | CCCSP(=O)(OCC)Oc1ccccc1Oc1ccc(C)nn1 (stereo not drawn) [compound 37] |  |  | 3 (≥90) | 3 (≥90) |  |  | 
37 | CCCSP(=O)(OCC)Oc1ccccc1Oc1ccc(N)nn1 (stereo not drawn) [compound 43] |  |  | 3 (≥90) | 3 (≥90) |  |  | 
38 | CCCSP(=S)(OCC)Oc1ccccc1Oc1ccc(N)nn1 (stereo not drawn) [compound 44] |  |  | 3 (≥90) | 3 (≥90) | > 300 mg/kg |  | 
39 | CCCSP(=O)(OCC)Oc1ccccc1Sc1ccc(N(C)C)nn1 (stereo not drawn) [compound 45] |  |  | 3 (≥90) | 3 (≥90) |  |  | 
40 | CCCSP(=S)(OCC)Oc1ccccc1Sc1ccc(NC(C)CC)nn1 (stereo not drawn) [compound 46] |  |  | 3 (≥90) | 3 (≥90) | > 300 mg/kg |  | 
